Assay results reported in patent US8247211B2, “Glycopeptide antibiotics” (American Cyanamid Company, priority 2001, dated 2012).
Values after ≈ are worked out from the molar mass of the structure shown. Read-outs that look alike come from different tables or passages of the source.

Experiments:
Assay in all cases: In vitro antibacterial evaluation: minimum inhibitory concentration (MIC), broth dilution method
Type in all cases: cell-based
Escherichia coli = test system: Escherichia coli
Staphylococcus sp. = test system: Staphylococcus sp.
Outline: (§1)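 NCCLS M7-A2 broth dilution; Muller-Hinton II […]; 5×10^5 CFU/mL; 64-0.06 μg/mL. MIC = lowest concentration with no growth.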

Streptococcus sp. = test system: Streptococcus sp.
Outline: as §1

Enterococcus sp. = test system: Enterococcus sp.
Outline: as §1

[1] = broth dilution, 18 hours at 35° C.
[2] = strain SMITH GC 4543, broth dilution, 18 hours at 35° C.
[3] = Streptococcus agalactiae (GC 4564), broth dilution, 18 hours at 35° C.
[4] = Streptococcus pneumoniae (ATCC 6301), broth dilution, 18 hours at 35° C.
[5] = Streptococcus pneumoniae (GC 1894), broth dilution, 18 hours at 35° C.
[6] = Streptococcus pneumoniae (GC 4565), broth dilution, 18 hours at 35° C.
[7] = Streptococcus pyogenes (GC 4563), broth dilution, 18 hours at 35° C.
[8] = Enterococcus avium (GC 4558), broth dilution, 18 hours at 35° C.
[9] = Enterococcus faecalis (GC 4553), broth dilution, 18 hours at 35° C.
[10] = Enterococcus faecium (GC 4557), broth dilution, 18 hours at 35° C.

## CC(c1ccccc1)C1NC(=O)CNC(=O)C(CO)NC(=O)C(C(O)C2CNC(=N)N2C2OC(CO)C(O)C(O)C2O)NC(=O)C(C(O)C2CNC(=N)N2)NC(=O)C(Cc2ccc3oc(SCc4ccc5ccccc5c4)nc3c2)NC1=O (stereo not drawn) [Example 46, Cyclo[3-[2-[(naphthylmethyl)thio]-1,3-benzoxazol-5-yl]alanyl-3-(2-iminoimidazolidin-4-yl)-seryl-3-(3-hexopyranosyl-2-iminoimidazolidin-4-yl)serylserylglycyl-β-methylphenylalanyl]]
Escherichia coli; [1]
  MIC Escherichia coli (ATCC 25922): 64 µg/mL (≈ 54.8 µM)
  MIC Escherichia coli (GC 4559): 64 µg/mL (≈ 54.8 µM)
  MIC Escherichia coli (GC 4560): 16 µg/mL (≈ 13.7 µM)
Staphylococcus sp.; [1]
  MIC Coagulase Negative Staphylococcus (GC 4547): 4 µg/mL (≈ 3.42 µM)
  MIC Coagulase Negative Staphylococcus (GC 4548): 8 µg/mL (≈ 6.85 µM)
  MIC Coagulase Negative Staphylococcus (GC 4549): 2 µg/mL (≈ 1.71 µM)
  MIC Coagulase Negative Staphylococcus (GC 4551): 4 µg/mL (≈ 3.42 µM)
  MIC Staphylococcus aureus SMITH (GC 4543): 4 µg/mL (≈ 3.42 µM)
  MIC Staphylococcus haemolyticus (GC 4546): 8 µg/mL (≈ 6.85 µM)
Staphylococcus sp.; [2]
  MIC Staphylococcus aureus-SMITH (GC 4543): 4 µg/mL (≈ 3.42 µM)
Streptococcus sp.; [3]
  MIC Streptococcus agalactiae (GC 4564): 8 µg/mL (≈ 6.85 µM)
Streptococcus sp.; [4]
  MIC Streptococcus pneumoniae (ATCC 6301): 8 µg/mL (≈ 6.85 µM)
Streptococcus sp.; [5]
  MIC Streptococcus pneumoniae (GC 1894): 8 µg/mL (≈ 6.85 µM)
Streptococcus sp.; [6]
  MIC Streptococcus pneumoniae (GC 4565): 8 µg/mL (≈ 6.85 µM)
Streptococcus sp.; [7]
  MIC Streptococcus pyogenes (GC 4563): 1 µg/mL (≈ 0.856 µM)
Streptococcus sp.; [1]
  MIC Streptococcus agalactiae (GC 4564): 8 µg/mL (≈ 6.85 µM)
  MIC Streptococcus pneumoniae (ATCC 6301): 8 µg/mL (≈ 6.85 µM)
  MIC Streptococcus pneumoniae (GC 1894): 8 µg/mL (≈ 6.85 µM)
  MIC Streptococcus pneumoniae (GC 4565): 8 µg/mL (≈ 6.85 µM)
  MIC Streptococcus pyogenes (GC 4563): 1 µg/mL (≈ 0.856 µM)
Enterococcus sp.; [8]
  MIC Enterococcus avium (GC 4558): 4 µg/mL (≈ 3.42 µM)
Enterococcus sp.; Enterococcus faecalis (ATCC 29212), broth dilution, 18 hours at 35° C.
  MIC Enterococcus faecalis (ATCC 29212): 8 µg/mL (≈ 6.85 µM)
Enterococcus sp.; Enterococcus faecalis (GC 2242), broth dilution, 18 hours at 35° C.
  MIC Enterococcus faecalis (GC 2242): 8 µg/mL (≈ 6.85 µM)
Enterococcus sp.; Enterococcus faecalis (GC 2691), broth dilution, 18 hours at 35° C.
  MIC Enterococcus faecalis (GC 2691): 16 µg/mL (≈ 13.7 µM)
Enterococcus sp.; Enterococcus faecalis (GC 3059), broth dilution, 18 hours at 35° C.
  MIC Enterococcus faecalis (GC 3059): 32 µg/mL (≈ 27.4 µM)
Enterococcus sp.; Enterococcus faecalis (GC 4552), broth dilution, 18 hours at 35° C.
  MIC Enterococcus faecalis (GC 4552): 8 µg/mL (≈ 6.85 µM)
Enterococcus sp.; [9]
  MIC Enterococcus faecalis (GC 4553): 4 µg/mL (≈ 3.42 µM)
Enterococcus sp.; Enterococcus faecalis (GC 4554), broth dilution, 18 hours at 35° C.
  MIC Enterococcus faecalis (GC 4554): 16 µg/mL (≈ 13.7 µM)
Enterococcus sp.; Enterococcus faecalis (GC 6189), broth dilution, 18 hours at 35° C.
  MIC Enterococcus faecalis (GC 6189): 16 µg/mL (≈ 13.7 µM)
Enterococcus sp.; Enterococcus faecium (GC 2243), broth dilution, 18 hours at 35° C.
  MIC Enterococcus faecium (GC 2243): 4 µg/mL (≈ 3.42 µM)
Enterococcus sp.; Enterococcus faecium (GC 4556), broth dilution, 18 hours at 35° C.
  MIC Enterococcus faecium (GC 4556): 16 µg/mL (≈ 13.7 µM)
Enterococcus sp.; [10]
  MIC Enterococcus faecium (GC 4557): 8 µg/mL (≈ 6.85 µM)
Enterococcus sp.; [1]
  MIC Enterococcus avium (GC 4558): 4 µg/mL (≈ 3.42 µM)
  MIC Enterococcus faecalis (ATCC 29212): 8 µg/mL (≈ 6.85 µM)
  MIC Enterococcus faecalis (GC 2242): 8 µg/mL (≈ 6.85 µM)
  MIC Enterococcus faecalis (GC 2691): 16 µg/mL (≈ 13.7 µM)
  MIC Enterococcus faecalis (GC 3059): 32 µg/mL (≈ 27.4 µM)
  MIC Enterococcus faecalis (GC 4552): 8 µg/mL (≈ 6.85 µM)
  MIC Enterococcus faecalis (GC 4553): 4 µg/mL (≈ 3.42 µM)
  MIC Enterococcus faecalis (GC 4554): 16 µg/mL (≈ 13.7 µM)
  MIC Enterococcus faecalis (GC 6189): 16 µg/mL (≈ 13.7 µM)
  MIC Enterococcus faecium (GC 2243): 4 µg/mL (≈ 3.42 µM)
  MIC Enterococcus faecium (GC 4556): 16 µg/mL (≈ 13.7 µM)
  MIC Enterococcus faecium (GC 4557): 8 µg/mL (≈ 6.85 µM)

## Cyclo[3-[[2-(2,3,4,6-tetra-O-benzoylhexopyranosyl)amino]-1,3-benzoxazol-5-yl]alanyl-3-(2-iminoimidazolidin-4-yl)seryl-3-(3-hexopyranosyl-2-iminoimidazolidin-4-yl)seryl-serylglycyl-β-methylphenylalanyl] [Example 44]
Escherichia coli
  MIC Escherichia coli (ATCC 25922): >64 µg/mL
  MIC Escherichia coli (GC 4559): >64 µg/mL
  MIC Escherichia coli (GC 4560): 64 µg/mL
Staphylococcus sp.
  MIC Coagulase Negative Staphylococcus (GC 4547): 64 µg/mL
  MIC Coagulase Negative Staphylococcus (GC 4548): 8 µg/mL
  MIC Coagulase Negative Staphylococcus (GC 4549): 2 µg/mL
  MIC Coagulase Negative Staphylococcus (GC 4551): 16 µg/mL
  MIC Coagulase Negative Staphylococcus (GC 6257): 8 µg/mL
  MIC Staphylococcus aureus (ATCC 29213): 64 µg/mL
  MIC Staphylococcus aureus (GC 1131): 64 µg/mL
  MIC Staphylococcus aureus (GC 3051): 64 µg/mL
  MIC Staphylococcus aureus (GC 3053): 32 µg/mL
  MIC Staphylococcus aureus (GC 4541): 64 µg/mL
  MIC Staphylococcus aureus (GC 4542): 64 µg/mL
  MIC Staphylococcus aureus (GC 4544): 16 µg/mL
  MIC Staphylococcus aureus (GC 4545): 16 µg/mL
  MIC Staphylococcus aureus SMITH (GC 4543): 32 µg/mL
  MIC Staphylococcus aureus-SMITH (GC 4543): 32 µg/mL
  MIC Staphylococcus haemolyticus (GC 4546): 64 µg/mL
Streptococcus sp.
  MIC Streptococcus agalactiae (GC 4564): 16 µg/mL
  MIC Streptococcus pneumoniae (ATCC 6301): 8 µg/mL
  MIC Streptococcus pneumoniae (GC 1894): 16 µg/mL
  MIC Streptococcus pneumoniae (GC 4565): 32 µg/mL
  MIC Streptococcus pyogenes (GC 4563): 4 µg/mL
Enterococcus sp.
  MIC Enterococcus avium (GC 4558): 4 µg/mL
  MIC Enterococcus faecalis (ATCC 29212): 16 µg/mL
  MIC Enterococcus faecalis (GC 2242): 16 µg/mL
  MIC Enterococcus faecalis (GC 2691): 16 µg/mL
  MIC Enterococcus faecalis (GC 3059): 32 µg/mL
  MIC Enterococcus faecalis (GC 4552): 16 µg/mL
  MIC Enterococcus faecalis (GC 4553): 8 µg/mL
  MIC Enterococcus faecalis (GC 4554): 32 µg/mL
  MIC Enterococcus faecalis (GC 6189): 16 µg/mL
  MIC Enterococcus faecium (GC 2243): 8 µg/mL
  MIC Enterococcus faecium (GC 4556): 32 µg/mL
  MIC Enterococcus faecium (GC 4557): 8 µg/mL

## CC(c1ccccc1)C1NC(=O)CNC(=O)C(CO)NC(=O)C(C(O)C2CNC(=N)N2C2OC(CO)C(O)C(O)C2O)NC(=O)C(C(O)C2CNC(=N)N2)NC(=O)C(Cc2ccc3oc(-c4ccoc4)nc3c2)NC1=O (stereo not drawn) [Example 38, Cyclo[3-[2-(3-furyl)-1,3-benzoxazol-5-yl]alanyl-3-(2-iminoimidazolidin-4-yl)seryl-3-(3-hexopyranosyl-2-iminoimidazolidin-4-yl)serylserylglycyl-β-methylphenylalanyl]]
Escherichia coli; [1]
  MIC Escherichia coli (ATCC 25922): 64 µg/mL (≈ 60.3 µM)
  MIC Escherichia coli (GC 4559): 64 µg/mL (≈ 60.3 µM)
  MIC Escherichia coli (GC 4560): 32 µg/mL (≈ 30.1 µM)
Staphylococcus sp.; [1]
  MIC Coagulase Negative Staphylococcus (GC 4547): 32 µg/mL (≈ 30.1 µM)
  MIC Coagulase Negative Staphylococcus (GC 4548): 32 µg/mL (≈ 30.1 µM)
  MIC Coagulase Negative Staphylococcus (GC 4549): 64 µg/mL (≈ 60.3 µM)
  MIC Coagulase Negative Staphylococcus (GC 4551): 64 µg/mL (≈ 60.3 µM)
  MIC Coagulase Negative Staphylococcus (GC 6257): 16 µg/mL (≈ 15.1 µM)
  MIC Staphylococcus aureus SMITH (GC 4543): 64 µg/mL (≈ 60.3 µM)
  MIC Staphylococcus haemolyticus (GC 4546): 16 µg/mL (≈ 15.1 µM)
Staphylococcus sp.; [2]
  MIC Staphylococcus aureus-SMITH (GC 4543): 64 µg/mL (≈ 60.3 µM)
Streptococcus sp.; [3]
  MIC Streptococcus agalactiae (GC 4564): 32 µg/mL (≈ 30.1 µM)
Streptococcus sp.; [4]
  MIC Streptococcus pneumoniae (ATCC 6301): 32 µg/mL (≈ 30.1 µM)
Streptococcus sp.; [5]
  MIC Streptococcus pneumoniae (GC 1894): 32 µg/mL (≈ 30.1 µM)
Streptococcus sp.; [6]
  MIC Streptococcus pneumoniae (GC 4565): 64 µg/mL (≈ 60.3 µM)
Streptococcus sp.; [7]
  MIC Streptococcus pyogenes (GC 4563): 32 µg/mL (≈ 30.1 µM)
Streptococcus sp.; [1]
  MIC Streptococcus agalactiae (GC 4564): 32 µg/mL (≈ 30.1 µM)
  MIC Streptococcus pneumoniae (ATCC 6301): 32 µg/mL (≈ 30.1 µM)
  MIC Streptococcus pneumoniae (GC 1894): 32 µg/mL (≈ 30.1 µM)
  MIC Streptococcus pneumoniae (GC 4565): 64 µg/mL (≈ 60.3 µM)
  MIC Streptococcus pyogenes (GC 4563): 32 µg/mL (≈ 30.1 µM)
Enterococcus sp.; [8]
  MIC Enterococcus avium (GC 4558): 64 µg/mL (≈ 60.3 µM)
Enterococcus sp.; [9]
  MIC Enterococcus faecalis (GC 4553): 64 µg/mL (≈ 60.3 µM)
Enterococcus sp.; [10]
  MIC Enterococcus faecium (GC 4557): 32 µg/mL (≈ 30.1 µM)
Enterococcus sp.; [1]
  MIC Enterococcus avium (GC 4558): 64 µg/mL (≈ 60.3 µM)
  MIC Enterococcus faecalis (GC 4553): 64 µg/mL (≈ 60.3 µM)
  MIC Enterococcus faecium (GC 4557): 32 µg/mL (≈ 30.1 µM)
